From patent US8440212B2, “Compositions for treating water systems” (Arch Chemicals, Inc., priority 2009, dated 2013)
Read-outs that look alike come from different tables or passages of the source.

Columns and labels:
[1] = system: wild mustard algae (Schwab strain)
Description: (§1) Efficacy of zinc ions (in the form of zinc sulfate) was evaluated using two strains of very difficult to control wild mustard algae, both isolated from a pool treated with BAQUACIL (Arch Chemicals, Norwalk, CT). All experiments were conducted in 125 ml Erlenmeyer flasks that contained 50 ml of Jaworski's medium. To increase the surface area in the flasks each flask also contained 50 6 mm glass beads. The tests flasks were illuminated using a combination incandescent and fluorescent plant grow lights with 16 hours of illumination and 8 hours of darkness. Temperature was maintained at 80° F+/−5° F. The flasks were grown without agitation or additional aeration. One ml of a pooled mid-log culture was used to used to inoculate the test flasks to an initial optical density of 95%T. This yields an initial concentration of approximately […] algae per ml. Efficacy was evaluated in the presence and absence of a sub-optimal concentration of a primary sanitizer (PHMB). Growth was measured optically at 450 nm using a 1 inch cell in a Spectronic 20. All experiments used five replicates. The results of the optical readings were arithmetically averaged. […] In FIGS. 1 and 2, PHMB concentrations were held at 4 PPM, and zinc ion concentration was varied from 0 to 3 PPM. Growth over time was measured and plotted.

[2] = system: wild mustard algae (Miami strain)
Description: as §1

[3] = system: Chlorella pyrenoidosa, Pleurochloris pyrenoidosa and Phormidium sp.; details: FIG. 4
Description: This study was conducted in test pools without bathers. The water was initially balanced and proper water balance was maintained throughout the study. Each pool was inoculated weekly with mixed bacterial, fungal and algal cultures. The algae inoculations were prepared using the methodology below.
Algal cultures were maintained in 5 liter carboys at 22° C. under fluorescent light with a 12 hour on/off cycle. Air is continuously bubbled through the medium. Stock cultures of Chlorella pyrenoidosa and Pleurochloris pyrenoidosa are maintained in Kratz & Meyers medium and Phormidium sp., a filamentous blue-green alga, is maintained in BG-11.
150 milliliters of a combined inoculum containing equal amounts of each strain is added weekly per 10,000 gallons of water. Typically the cultures contain approximately 2×10^7 cells per milliliter; therefore approximately 2×10^9 cells are added per pool each week. However, if time allows, determine the actual number of algae in each sample by heamocytometry, using a Neubauer heamocytometer. Each pool was chemically treated using the procedure below.
A. Test Pool 7: Baquacil CDX +Didecyl dimethyl ammonium chloride (DDAC) • 1. […]
Observations were taken on a business daily basis and the pool was scored using the following 0-4 scale. • 0=no trace of algae • 1=trace amounts • 2=small patches • 3=large patches • 4=sides and bottom more than 25% covered by algae

[4] = 2 or 3 ppm zinc ions, PHMB 4 PPM

`O=S(=O)([O-])[O-].[Zn+2]` [zinc sulfate] was tested, and the “reduction of algal growth” value [1, 4] was “approximately 50%”, the algaestatic activity ([1]; FIG. 1, PHMB held at 4 PPM, zinc ion 0 to 3 PPM, growth measured optically at 450 nm) was “moderate algaestatic activity” and the “reduction of algal growth” value [2, 4] was “approximately 50%”. The algaestatic activity ([2]; FIG. 2, PHMB held at 4 PPM, zinc ion 0 to 3 PPM, growth measured optically at 450 nm) was “moderate algaestatic activity”, the “algaestatic performance (visual algae score 0-4)” value ([3]; Test Pool 7: Baquacil CDX + DDAC, single 4.2 ppm dosage of zinc sulfate (1.5 PPM zinc) after 102 days) was “improved algaestatic performance” and the “algaestatic performance (visual algae score 0-4)” value ([3]; Test Pool 8: Baquacil CDX control, 4.2 ppm dosages of zinc sulfate (1.5 PPM zinc) after 33, 40 and 61 days) was “improved algaestatic performance”.
